Reference: a compilation of properties of binary mixtures (doi:10.1021/acs.iecr.0c01496)

Experiment: xn = mol fraction of the nth substance listed
Conditions: 101 kPa

CCCC[n+]1ccccc1.[Cl-] + CC[n+]1ccccc1.[Br-]
viscosity [mPa·s]
Conditions | x2 = 0.104 | x2 = 0.193 | x2 = 0.313 | x2 = 0.408 | x2 = 0.484 | x2 = 0.604 | x2 = 0.64 | x2 = 0.694 | x2 = 0.797 | x2 = 0.894
368.1 K | – | – | – | – | 56.3 | 46 | 43.6 | 39.7 | – | –
373.1 K | – | – | – | – | 47.7 | 39.5 | 37.6 | 34.5 | – | –
378.1 K | – | – | – | – | 40.7 | 34.1 | 32.6 | 30.1 | 26 | –
383.1 K | – | – | – | 38.5 | 34.8 | 29.6 | 28.3 | 26.3 | 23 | –
388.1 K | – | – | – | 32.9 | – | 25.7 | 24.7 | – | 20.4 | –
393.1 K | – | 36 | 31.5 | 28.3 | 25.9 | 22.5 | – | 20.4 | – | 16.16
398.1 K | – | 30.5 | 27 | 24.4 | 22.5 | 19.7 | 19 | 18.01 | 16.16 | 14.53
403.1 K | 28.4 | 26.1 | 23.3 | – | 19.7 | – | 16.77 | 15.99 | 14.46 | 13.09
408.1 K | 24.4 | 22.4 | 20.2 | 18.5 | 17.27 | 15.38 | – | 14.24 | – | 11.82
413.1 K | 21 | – | 17.7 | 16.27 | 15.24 | 13.66 | – | – | – | 10.69
418.1 K | – | 16.98 | 15.51 | 14.37 | 13.52 | 12.2 | – | – | 10.53 | 9.7
423.1 K | 16.01 | 14.92 | – | 12.77 | 12.04 | 10.92 | 10.59 | 10.27 | – | –
428.1 K | 14.14 | 13.22 | – | 11.41 | 10.79 | – | 9.53 | – | 8.64 | 8.01
433.1 K | 12.59 | 11.8 | 10.96 | 10.25 | – | 8.86 | – | 8.41 | 7.85 | 7.31
438.1 K | 11.29 | 10.6 | 9.89 | 9.26 | 8.8 | – | 7.81 | 7.65 | 7.17 | –
443.1 K | 10.22 | 9.6 | 8.97 | 8.42 | 8.01 | 7.32 | – | 6.98 | – | 6.11

CCCC[n+]1ccccc1.[Cl-] + CCCC[n+]1ccccc1.[Br-]
viscosity [mPa·s]
Conditions | 398.1 K | 403.1 K | 408.1 K | 413.1 K | 418.1 K | 423.1 K | 428.1 K | 433.1 K | 438.1 K | 443.1 K
x1 = 0.084 | – | – | 22.9 | 19.4 | 16.6 | – | 12.56 | 11.09 | 9.91 | 8.95
x1 = 0.169 | 33.5 | 27.8 | 23.3 | 19.7 | – | 14.63 | 12.79 | 11.3 | – | 9.1
x1 = 0.292 | 33.8 | 28.1 | 23.6 | 20 | 17.2 | 14.84 | 12.97 | – | 10.22 | 9.22
x1 = 0.389 | – | 28.5 | – | 20.3 | – | 15.07 | 13.18 | 11.63 | 10.37 | 9.35
x1 = 0.469 | – | 29.1 | 24.5 | 20.9 | 18 | 15.61 | 13.69 | 12.13 | – | 9.81
x1 = 0.611 | – | – | 25.1 | 21.4 | 18.4 | 16.03 | 14.06 | 12.46 | 11.15 | 10.07
x1 = 0.689 | – | – | – | 21.5 | – | 16.11 | 14.13 | 12.51 | 11.17 | 10.08
x1 = 0.785 | – | – | – | 21.9 | 18.9 | 16.43 | – | 12.76 | 11.41 | 10.29
x1 = 0.892 | – | – | – | – | – | – | 14.84 | – | – | 10.63

CC[n+]1ccccc1.[Cl-] + CCCC[n+]1ccccc1.[Cl-]
viscosity [mPa·s]
Conditions | x1 = 0.121 | x1 = 0.198 | x1 = 0.302 | x1 = 0.388 | x1 = 0.504 | x1 = 0.597 | x1 = 0.702 | x1 = 0.795 | x1 = 0.804
363.1 K | – | – | – | – | – | – | – | 58.2 | 57.9
368.1 K | – | – | – | – | – | – | – | 47.6 | 47.5
373.1 K | – | – | – | – | – | – | – | 39.3 | 39.3
378.1 K | – | – | – | – | – | – | – | – | 32.7
383.1 K | – | – | – | – | – | – | – | 27.4 | 27.4
388.1 K | – | – | – | – | – | 28.8 | 25.5 | 23.1 | –
393.1 K | – | – | – | – | – | 24.4 | 21.6 | 19.7 | –
398.1 K | – | – | – | 25.3 | – | 20.7 | – | 16.8 | –
403.1 K | – | – | – | 21.5 | 20.1 | 17.8 | 15.9 | 14.53 | –
408.1 K | – | – | 20.2 | 18.5 | 17.4 | 15.39 | 13.73 | 12.63 | 12.79
413.1 K | – | – | 17.5 | 15.98 | 15.22 | 13.41 | 11.98 | – | 11.23
418.1 K | 17.66 | 17.21 | 15.22 | 13.94 | – | 11.79 | 10.54 | 9.75 | 9.93
423.1 K | 15.42 | 15.14 | 13.36 | – | 11.92 | 10.44 | 9.33 | 8.67 | 8.86
428.1 K | 13.58 | 13.44 | 11.83 | 10.85 | 10.69 | 9.32 | – | – | 7.96
433.1 K | 12.06 | 12.04 | 10.56 | 9.69 | 9.66 | – | 7.5 | 7 | 7.21
438.1 K | 10.81 | 10.88 | – | 8.73 | 8.81 | 7.61 | – | 6.37 | 6.58
443.1 K | 9.77 | 9.92 | 8.64 | 7.94 | – | 6.96 | 6.22 | 5.84 | –

CC[n+]1ccccc1.[Cl-] + CC[n+]1ccccc1.[Br-]
viscosity [mPa·s]
Conditions | 403.1 K | 408.1 K | 413.1 K | 418.1 K | 423.1 K | 428.1 K | 433.1 K | 438.1 K | 443.1 K
x1 = 0.105 | 12.65 | 11.56 | 10.55 | 9.63 | 8.8 | 8.05 | 7.39 | 6.82 | 6.34
x1 = 0.196 | 12.66 | 11.53 | 10.51 | – | – | 7.97 | 7.31 | 6.75 | 6.27
x1 = 0.303 | 12.66 | – | 10.45 | 9.5 | – | – | 7.22 | 6.66 | 6.2
x1 = 0.387 | 12.65 | – | 10.31 | 9.37 | 8.55 | 7.84 | 7.23 | 6.69 | 6.22
x1 = 0.503 | 12.66 | 11.37 | – | 9.28 | 8.45 | 7.74 | – | 6.61 | 6.15
x1 = 0.613 | 12.67 | 11.33 | 10.19 | – | – | 7.65 | 7.05 | – | 6.08
x1 = 0.688 | – | 11.3 | 10.15 | 9.17 | 8.33 | – | 7 | 6.47 | 6.02
x1 = 0.803 | 12.66 | 11.26 | 10.08 | 9.08 | 8.24 | 7.52 | 6.9 | 6.38 | 5.94
x1 = 0.885 | 12.65 | 11.22 | 10.02 | 9.02 | – | 7.44 | 6.83 | 6.32 | 5.88
